This is an account of results in the METLIN SMRT retention time set (Domingo-Almenara et al. 2019).

Each structure is given as a SMILES string.

The nature of the data set: gradient 5% acetonitrile 3 min, to 50% in 2 min, to 85% in 15 min, held 3 min, 100 µL/min. The settings on record: column: Zorbax Extend-C18 2.1 x 50 mm; eluents: water / acetonitrile, 0.1% formic acid. The essentials:
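Pure standards were run in mixtures of ~100 molecules by HPLC coupled to a quadrupole time-of-flight mass spectrometer. The column was a Zorbax Extend-C18 (2.1 × 50 mm, 1.8 μm) at 100 μL/min, with water and acetonitrile each containing 0.1% formic acid, in positive and negative ionization mode. Dead and dwell volumes were 40 μL and 900 μL. Retention time was taken from computationally picked adduct peaks, each manually inspected, with data collected over 3 months.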
`Cc1ccccc1CNS(=O)(=O)c1cc2c(s1)CCN(C(=O)C1CCC1)C2` gave an RP-LC retention time of 942 s.
With `COc1ccc(NCc2nnc3n2CCCCC3)cc1OC` the figure was 559 s; with `CCCN1C(=O)c2c(C(=O)N3CCOCC3)ncn2CC1(C)C(=O)NCc1ccc(F)cc1` (stereo unspecified), 618 s; with `Cc1ccc(-c2c(C)noc2C)cc1S(=O)(=O)NCc1ccccc1`, 924 s.
As for `CCCc1ccc(S(=O)(=O)N2CCC3(CC2)CCC(O)(CN2CCCC2)CC3)cc1`, the RP-LC retention time was 735 s.
`O=C(Cn1c(=O)c(CCC(=O)NC2CC2)nc2ccccc21)Nc1ccccc1Br` yielded an RP-LC retention time of 712 s.
Take `COc1ccc(C2CC(=O)N(c3ccc(F)c(F)c3)C(=O)C2)cc1`: the RP-LC retention time turned out to be 910 s.
As for `CCOc1ncccc1C(=O)N1CCN(c2ccc(-c3ccc(OC)c(OC)c3)nn2)CC1`, the figure is 606 s.
As for `Cc1cccc(S(=O)(=O)N2CCc3c(c(-c4nnc(-c5ccccc5F)o4)nn3C)C2)c1`, the figure is 999 s; as for `COCCCNC(=O)c1cc(-c2ccc(OC)c(OC)c2)nc2n[nH]c(-c3ccc(OC)cc3)c12`, 724 s; as for `Cc1nn(CC(=O)NC2CCCCC2)c(=O)c2c(-n3cccc3)n(-c3ccc(Cl)cc3)nc12`, 1130 s.
With `O=c1n(CC2CC2)nc2n1CCN(Cc1ccncc1)C2` the figure was 511 s; with `COc1ccc(-c2nc3ncccn3c2Nc2ccc(C)cc2)cc1`, 744 s; with `CCCn1cc(CCNS(=O)(=O)c2ccccc2)c2cccnc21`, 786 s.
As to `CCN1C(=O)CCC2(C(=O)NCCc3c[nH]c4ccccc34)CCCC=C12` (stereo unspecified), the RP-LC retention time worked out at 743 s.
The compound `CCCCC(=O)Nc1nc(-c2ccc(C)cc2C)cs1` displayed an RP-LC retention time of 1100 s.
As for `CCc1cc(C(=O)Nc2cc(F)ccc2C)nc2ccnn12`, the figure is 1090 s.
With `COCCn1cc(CCNC(=O)Nc2ccccc2Br)c2cccnc21` the figure was 763 s.
Turning to `O=C(C1CCN(Cc2cc3ccccc3n2Cc2cccc(F)c2)CC1)N1CCCC1`, the RP-LC retention time was 721 s.
As for `Cc1ccc(NC(=O)C2CCN(c3nc(C4CCC4)nc4csc(C)c34)CC2)c(C)c1`, the figure is 804 s.
As for `CN1c2ccccc2C(=O)NC12CCN(C(=O)Nc1ccccc1Cl)CC2`, the figure is 761 s; as for `O=C(NCc1cccs1)C1CCN(Cc2cc3ccccc3n2Cc2ccc(F)cc2)CC1`, 783 s; as for `Cc1ccc2c(Nc3ccc(C#N)cc3)c(C(=O)N3CCCC3)cnc2n1`, 576 s.
With `CCN1CCN(Cc2nc3cc(NC(=O)C(C)C)ccc3n2C(C)C)CC1` the figure was 563 s; with `CC(=O)N1CCC2(CC1)OC(=O)C(C)=C2C(=O)NCCCN(Cc1ccccc1)C(C)C`, 580 s.
`CCN(CC)CCc1nc(-c2ccccc2)no1` had an RP-LC retention time of 674 s.
Compound `Cc1nn(C(C)C(=O)NCCC(C)C)c(=O)c2nn(-c3ccccc3)c(C)c12` (stereo unspecified) returned an RP-LC retention time of 622 s.
Take `c1cn(-c2cc(N3CCCCC3)ncn2)cn1`: the RP-LC retention time amounted to 613 s.
The compound `CCOC(=O)c1cccc(NC(=O)N2CCc3cn(C)c4cccc(c34)C2)c1` came in with an RP-LC retention time of 1210 s.
With `COc1ccc(-c2csc3c(=O)n(CC(=O)N4CCCC4)cnc23)cc1` the figure was 760 s.
With `CCOc1ccc(-c2nc(-c3ccc4oc(CC)nc4c3)no2)cc1` the figure was 1280 s; with `O=C(NCC1CCCO1)N1CCc2[nH]nc(-c3ccccc3)c2C1` (stereo unspecified), 644 s; with `Cn1nccc1C(=O)Nc1ccc(OCc2nnc(-c3ccc(Cl)cc3)o2)cc1`, 864 s.
As for `CCN1CCN(c2nccc(-c3cnc4nc(-c5cccnc5)nn4c3C)n2)CC1`, the figure is 574 s; as for `CCc1nnc([C@@H]2CC(F)(F)CN2C(=O)c2n[nH]c3ccccc23)o1`, 734 s.
`O=C(NCCc1csc2nc(-c3cccs3)nn12)c1ccc(Br)o1` came in with an RP-LC retention time of 769 s.
As for `CCc1ccc(NC(=O)C2CCN(S(=O)(=O)c3cn(C(C)C)cn3)CC2)cc1`, the figure is 840 s; as for `Cn1cc(C(=O)NCc2ccccc2Cl)c(S(=O)(=O)N2CCSCC2)n1`, 890 s.
As for `Cc1ccc(C)c(CNC(=O)c2cc3n(n2)CC(C)(C(=O)NCc2ccc(F)cc2)N(C)C3=O)c1` (stereo unspecified), the figure is 842 s; as for `C=CCn1c(SCCC(=O)O)nnc1-c1cccs1`, 616 s; as for `COC(=O)c1c(-c2cccc(F)c2)noc1NCCc1c(C)noc1C`, 968 s.
As for `CCOC(=O)c1cccc(N2C=C(C(=O)N3CCCC3)S(=O)(=O)c3ccccc32)c1`, the figure is 802 s; as for `COc1ccc(Cl)cc1NC(=O)c1sc(-c2cn(C)c3ncccc23)nc1C`, 1220 s; as for `COc1cccc(N2CCN(C(=O)C3CCN(c4nccnc4Sc4ccccc4)CC3)CC2)c1`, 1070 s.
In turn, `CCCC(=O)Nc1cc(-c2nc3ccc(C)cc3[nH]2)ccc1C` returned an RP-LC retention time of 650 s.
With `COC(=O)c1sccc1NC(=O)Cn1c(C)cc(C)c(-c2nc(-c3ccccc3)no2)c1=O` the figure was 1060 s.
As for `Cc1nc(C)c(-c2cc(C(=O)N3CCN(c4ccc(F)cc4)CC3)n[nH]2)s1`, the figure is 690 s.
As for `Brc1ccc(Nc2c(-c3ccc4c(c3)OCO4)nc3cnccn23)cc1`, the figure is 921 s; as for `CC1(C)C(=O)N(CC(=O)Nc2ccccc2Cl)c2ccccc21`, 912 s.
Regarding `CC1CCC2(CC1)NC(=O)N(CC(=O)NCc1ccccc1F)C2=O` (stereo unspecified), the RP-LC retention time was 772 s.
As for `O=C(Cn1nc(-c2cccnc2)ccc1=O)Nc1nc2ccccc2[nH]1`, the figure is 528 s; as for `O=C(CS(=O)(=O)Cc1ccccc1)NCc1ccccc1`, 741 s.
With `Cc1cc2c(SCC(=O)N3CCCc4ccccc43)ncnc2s1`, the RP-LC retention time amounted to 950 s.
As for `CCOC(=O)c1cn[nH]c1S(=O)(=O)Nc1ccc2c(c1)OCCO2`, the figure is 683 s; as for `CCNC(=O)c1nc(Nc2ccc(C)cc2)c2ccccc2n1`, 705 s.
Consider `CCCc1ccc(S(=O)(=O)N2CCC3(CC2)CN(C)CC3c2nnc(CC)o2)cc1` (stereo unspecified), for which the RP-LC retention time was found to be 692 s.
With `CCCCCNC(=O)c1cn(-c2ccc(NC(C)=O)cn2)cn1` the figure was 690 s; with `CC1CCN(c2cc3c(cc2NC(=O)COc2ccc(Cl)cc2)n(C)c(=O)c(=O)n3C)CC1`, 1120 s.
With `COc1ccc(C2Cn3nnc(-c4nc(-c5ccc(C)cc5)no4)c3CO2)cc1` (stereo unspecified) the figure was 1180 s; with `CCN(CC)CCNS(=O)(=O)c1cc(-c2[nH]ncc2C(=O)N2CCCC2)oc1C`, 565 s.
With `Clc1ccc(-c2nc3cnccn3c2Nc2ccc3c(c2)OCO3)cc1` the figure was 930 s; with `Nc1cc(C2CCN(C(=O)/C=C/c3ccccc3Cl)CC2)no1`, 747 s.
On to `CN(C)C(=O)c1ccc2c(c1)nc(CN(C)C(=O)Nc1ccc(Br)cc1)n2C`, for which the RP-LC retention time is 628 s.
With `CCCCN1CCc2nc(N3CCN(c4ccccc4F)CC3)ncc2C1` the figure was 715 s.
As for `O=S(=O)(c1ccc(-c2nnc(C3CC3)o2)o1)N1CCN(c2ccccc2)CC1`, the figure is 971 s.
As for `COc1ccc(CNC(=O)c2cn3ccccc3n2)c(OC)c1`, the figure is 658 s; as for `Cc1cc(S(=O)(=O)N2CC(Cc3nncn3C3CCCC3)C2)ccc1F`, 747 s.
Regarding `Cc1ccc(C)c(CNc2nc3ccncc3n(Cc3ccccc3)c2=O)c1`, the RP-LC retention time turned out to be 798 s.
Compound `COC(=O)c1sccc1NC(=O)N1CCCn2nc(-c3ccncc3)cc2C1` displayed an RP-LC retention time of 647 s.
Turning to `O=c1ccc(-c2ccc3c(c2)OCO3)nn1Cc1nc(-c2cccc(Cl)c2)no1`, the RP-LC retention time was 1040 s.
With `O=C(c1cccs1)N1CCC(c2nncn2-c2ccccc2)CC1` the figure was 626 s; with `Cc1ccc(Nc2nc(C)cc(N3CCN(S(=O)(=O)c4ccc(C(F)(F)F)cc4)CC3)n2)cc1`, 851 s.
As for `O=C(COc1ccc(Cl)cc1)N1CCN(CC(F)(F)F)CC1`, the figure is 853 s; as for `O=C(CSc1ccc(N2CCOCC2)nn1)Nc1ccccc1Cl`, 730 s.
As for `Cn1c(N2CCCC(C(=O)NCc3cccs3)C2)cc(=O)n(C)c1=O` (stereo unspecified), the RP-LC retention time was found to be 650 s.
With `COc1cc(NC(=O)CN2C(=O)C(C)(C)c3ccccc32)cc(OC)c1OC` the figure was 784 s.
`O=C(NCc1ccc(F)cc1)C1CCCN(c2nc3ccsc3c(=O)n2Cc2ccc(F)cc2)C1` (stereo unspecified) showed an RP-LC retention time of 963 s.
With `O=C(Cc1cccs1)NCc1nnnn1-c1ccc(Cl)cc1` the figure was 747 s.
With `COc1cccc(-c2nc(Cn3ccnc3)no2)c1` the figure was 601 s; with `O=C(c1ccco1)N1CCC(Oc2nc3ccc(F)cc3s2)CC1`, 902 s.
With `CCOc1ccccc1N1CCN(S(=O)(=O)c2nn(C)cc2C(=O)NCCCOC)CC1` the figure was 847 s.
